Measured values: patent US20230129034A1, “TREATMENT OF DISEASE WITH ESTERS OF SELECTIVE RXR AGONISTS” (Io Therapeutics, Inc., priority 2017, published 2023)

Legend:
RXRβ = biological target: T1, RXRβ (Homo sapiens, UniProt P28702); assay: Competitive displacement of [3H]-9CRA from purified receptor; conditions: 10 nM [3H]-9CRA; read-out: RXR Binding Affinity Ki (nM) RXRβ
T1 construct: an expression construct including a full length RXRα, RXRβ, or RXRy; expressed in transfected cells; host or cells: CV-1
T1 sequence (P28702 1-533): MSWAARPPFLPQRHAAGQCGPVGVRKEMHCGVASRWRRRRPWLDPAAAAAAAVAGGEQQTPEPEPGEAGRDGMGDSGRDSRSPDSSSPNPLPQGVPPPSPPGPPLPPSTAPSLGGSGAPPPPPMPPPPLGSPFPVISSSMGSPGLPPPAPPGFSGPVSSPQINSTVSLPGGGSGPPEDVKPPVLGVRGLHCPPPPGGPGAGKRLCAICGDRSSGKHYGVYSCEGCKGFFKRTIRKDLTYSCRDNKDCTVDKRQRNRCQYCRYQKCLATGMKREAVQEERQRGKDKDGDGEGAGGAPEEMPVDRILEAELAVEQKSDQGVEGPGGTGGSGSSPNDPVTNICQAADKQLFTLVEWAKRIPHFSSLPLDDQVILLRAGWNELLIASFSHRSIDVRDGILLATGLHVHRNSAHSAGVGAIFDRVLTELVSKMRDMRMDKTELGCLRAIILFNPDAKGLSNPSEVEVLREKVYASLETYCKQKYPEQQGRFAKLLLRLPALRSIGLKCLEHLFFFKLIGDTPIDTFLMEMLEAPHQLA
Description: Standard errors (±) among independent experiments are indicated.

[1] = Thyroid function in human subjects treated with IRX4204; assay type: in vivo

Row | SMILES | Ki (RXRβ) [nM] | circulating thyroxine levels [1] | plasma levels of TSH [1]
1 | CCOC(=O)/C=C(C)/C=C/[C@@H]1C[C@]1(C)c1ccc2c(c1)C(C)(C)CCC2(C)C [IRX4204EE, 3,7-dimethyl-6(S),7(S)-methano,7-[1,1,4,4-tetramethyl-1,2,3,4-tetrahydronaphth-7-yl]2(E),4(E) heptadienoic ethyl ester] | > 1000 | – | –
2 | CC(/C=C/[C@@H]1C[C@]1(C)c1ccc2c(c1)C(C)(C)CCC2(C)C)=C\C(=O)O [IRX4204, 3,7-dimethyl-6(S),7(S)-methano,7-[1,1,4,4-tetramethyl-1,2,3,4-tetrahydronaphth-7-yl]2(E),4(E) heptadienoic acid] | – | reduction in circulating thyroxine levels | reduction in plasma levels of TSH
